Earlier results as cited in patent publication US9394312B1, “Ibrutinib prodrugs, pharmaceutical compositions thereof, and methods of use” (priority 2015, dated 2016).

Settings: humans, combined with a meal versus fasted

change of absolute bioavailability when combined with a meal: doubled
SMILES: C=CC(=O)N1CCC[C@@H](n2nc(-c3ccc(Oc4ccccc4)cc3)c3c(N)ncnc32)C1 [ibrutinib]
